One test relates to macrophages. Description: ROI generation by dichlorofluorescein (DCF) flow cytometry. Type of test: cell-based, human. Here is the method:
Because dichloro fluorescein (DCF) is a fluorochrome obtained from reaction of non fluorescent 2, 7-dichloro fluorescein diacetate (DCFH) with various oxidants, analysis thereof is used to detect cellular oxidative stress and amount of oxygen reactive intermediates (ROI) produced by phagocytic cells. In the used model, this analysis is employed in order to monitor the D-erythro-sphingosine 1-phosphate (S1P) modulated ROI production from macrophages. Macrophages were incubated for 90 minutes with sphingosine 1-phosphate at 0.5 μM, 5 μM, 10 μM and 50 μM concentrations. After the incubation 100 μl of 0.4 μM DCFH (Calbiochem) were added and incubated for at least 30 minutes. Finally, cells were washed with PBS and analysed using FACScan flow cytometer from Becton Dickinson.
On the technique in general: Flow cytometry measures light scatter and fluorescence of single cells or particles in a stream.

The subject of test [1] is Mycobacterium tuberculosis. Description: Colony forming units of H37Rv M. tuberculosis in differentiated THP-1 cells. In kind it is cell-based. To be noted: THP-1 macrophage cell line, MOI 1:10 or 1:1, 5 μM, up to 5 or 7 days. As for the experimental part:
Human monocytic THP-1 leukemia line cells were used in this example as a model for macrophage response. In order to obtain macrophage phenotype, 5×10^5/ml THP-1 cells were induced to differentiate by 48 hours incubation in the presence of 20 ng/ml Phorbol Myristate Acetate (PMA). Differentiated THP-1 cells (dTHP-1) were then centrifuged three times and suspended in complete medium [RPMI 1640 (Gibco BRL) supplemented with 10% fetal bovine serum, 5 mM L-glutamine) (Invitrogen), 1 mM sodium pyruvate (Gibco BRL) and non-essential amino acids (Euroclone), 5 μg/ml gentamicin (Invitrogen)]. dTHP-1 were then infected for 3 hours with H37Rv M. tuberculosis at the multiplicity of infection of 1:10 (FIG. 8A) or 1:1 (FIG. 8B) bacterium/cell. After infection cells were washed three times with RPMI 1640 and incubated in complete medium for further 1, 2 and 5 days (FIG. 8A) or 1 and 7 days (FIG. 8B) in the presence or absence of sphingosine 1-phosphate used at the concentration of 5 μM. […]

The subject of the next test is H37Rv MTB. Description: Mycobacterial viability (CFU) in MTB infected monocyte derived macrophages. Particulars: MTB MOI 1:1, S1P 5 μM, 5 days after the infection, statistically significant. In kind it is cell-based, Mycobacterium tuberculosis. Here is the method: In order to evaluate the bacterial viability, monocyte derived macrophages were infected for 3 hours with MTB at 1:1 macrophage/bacterium infection ratio and then treated with S1P (5 μM). At time 0(just after infection) and after 2 and 5 days the plates containing infected cellular cultures were centrifuged at 2000 RPM for 10 minutes and the supernatant was discarded. Then 1 ml PBS and 0.1% saponin were added to each well and the contents were incubated for 20 minute at 37° C. After incubation cellular lysates were sonicated for 20 seconds in such a way to break any possible bacterial aggregates. Lysates thus obtained were diluted in sterile saline 1:100, 1:1000, 1:10000 with addition of 0.01% Tween 80 and plated on Middlebrook 7H10 (Difco). Plates were incubated at 37° C. for about one month and colonies enumerated.
Based on the observations about the possible antimicrobial role of PLD and S1P during Mycobacterium tuberculosis infection it was investigated whether S1P macrophage exogenous stimulation and PLD activation were associated to a reduction of mycobacterial viability. To that object, monocytes were infected for three hours with H37Rv MTB at a multiplicity of infection of 1 bacillus for 1 cell. […]

Test [2] has as its system Mycobacterium tuberculosis. Description: Dose dependent effect of S1P on MTB replication in macrophages from peripheral blood monocytes. Type of test: cell-based. To be noted: human monocyte-derived macrophages, 4 donors, 0.5, 5 or 50 μM, fifth day after infection. As for the experimental part:
Peripheral blood mononuclear cells were isolated from human Buffy coat blood preparations by gradient centrifugation and suspended at 5×10^6/ml in complete medium [RPMI 1640 (Gibco BRL) supplemented with 10% fetal bovine serum (Gibco BRL), 5 mM L-glutamine and Gentamicine (5 μg/ml)]. Monocytes were then separated by adherence for 1 hour in polystyrene 75 cm^2 flasks (Corning, Cambridge, Mass.). After incubation, non-adherent cells were removed by three washes with warm RPMI 1640. […] Finally, adherent monocytes were collected after 15 minute incubation at 4° C. in the presence of 5 mM EDTA in PBS. Cells then were washed, incubated in complete medium for 5-7 days in 24 well plate at the concentration of 10^6 cells/ml to get monocyte-derived macrophages. […]
Sphingosine 1-phosphate (S-1P), used at the concentrations of 0.5, 5 or 50 μM inhibits intracellular replication of Mycobacterium tuberculosis in human monocyte-derived macrophages (MDM) from peripheral blood of healthy donors. Results are obtained from experiments performed on MDM from 4 different donors and are expressed as the means of the percentages of mycobacterial killing±standard error at the fifth day after infection. Percentage of mycobacterial killing is calculated by using the following formula: [1−(CFU from infected and S-1P stimulated MDM/CFU from infected unstimulated MDM)]×100.

`CCCCCCCCCCCCC/C=C/[C@@H](O)[C@@H](N)COP(=O)(O)O` [S1P, D-erythro-sphingosine 1-phosphate]: in the test with macrophages (5 μM S1P, DCF positive response after 30 and 90 minutes), the “ROI production by macrophages over the time” value is “increases progressively over the time”. In addition, the “S1P dose giving maximum DCF positive response” value in the test on macrophages (scalar S1P doses, % DCF positive cells) is listed as 5-10 μm. For the same compound, in test [1], the “intracellular replication of Mycobacterium tuberculosis (CFU)” value was “inhibits”. The “CFU number after S1P treatment” value in the test with H37Rv MTB is “reduced”. For the same compound, in test [2], the “intracellular replication of Mycobacterium tuberculosis (percentage of mycobacterial killing)” value is “inhibits”.

Source of the values: patent US9078907B2, “Immunoregulator compounds” (Universita Degli Studi Di Roma “Tor Vergata”, priority 2001, dated 2015).
